These results are taken from US20120021519A1, “EFFICIENT INDUCTION OF PLURIPOTENT STEM CELLS USING SMALL MOLECULE COMPOUNDS” (PRESIDENTS AND FELLOWS OF HARVARD COLLEGE, priority 2008, published 2012).

“And” between values parts separate entries of the source, which are not always exact repeats. Equal values may be shown once. “Also recorded” adds a separate entry of the source. Read-outs that look alike come from different tables or passages of the source.

In assay [1] the test system is stable Oct4::GFP-negative intermediate cell lines (OKMS). Kind of assay: Chemical reprogramming of stable intermediate cell lines from Oct4, Klf4, cMyc, Sox2 MEFs. The format is cell-based, mouse. On the procedure:
(§1) Oct4::GFP-negative colonies in Oct4, Klf4, and cMyc or Oct4, Klf4, cMyc, and Sox2-infected MEF cultures were picked, plated on irradiated feeders, and single colonies were picked after 1 week. The resulting cell lines were passaged with trypsin and grown in mES media on feeders until passage 4, at which time they were treated with RepSox (25 μM), AZA (500 μM), or both for 48 hours. Oct4::GFP+colonies were scored 12 days after the beginning of chemical treatment.

The subject of assay [2] is stable Oct4::GFP-negative intermediate cell lines (OKM). Kind of assay: Chemical reprogramming of stable intermediate cell lines from Oct4, Klf4, cMyc MEFs. The assay is classed as cell-based, mouse. On the procedure:
as §1

In assay [3] the test system is Klf4, cMyc, and Sox2-infected Oct4::GFP MEFs. Kind of assay: Oct4 replacement: Oct4::GFP+ colonies in Klf4, cMyc, Sox2-infected MEFs. The format is cell-based, mouse. On the procedure:
(§2) Moloney-based retroviral vectors (pMXs) expressing the murine complementary DNAs of Oct4, Sox2, c-Myc, and Klf4 were obtained from Addgene. These plasmids were transfected separately into individual populations of Plat-E packaging cells using Fugene 6, with 27 μl of Fugene 6 and 9 μg of DNA per 10 cm dish of Plat-E cells. Viral supernatants were obtained 48-72 hours post-transfection, filtered through a 0.22 μm filter, diluted 1:1 in MEF growth media, and supplemented with polybrene at a final concentration of 5 μg/ml. The supernatants for the four factors were mixed in an equimolar ratio, and media was used in place of a factor when it was omitted from the infection. MEFs were infected with two to three pools of viral supernatant during a 72-hour period. The first day that viral supernatant was termed “day 1 post-infection.”
(§3) On day 4 post-infection, infected MEFs were trypsinized and re-seeded on irradiated feeders in 96-well plates at 2000 cells/well and cultured in mouse ES cell media (Knockout DMEM supplemented with 15% Hyclone FBS, L-glutamine, penicillin/streptomycin, nonessential amino acids, β-mercaptoethanol, and 1000 U/ml LIF). The next day, compound stock solutions diluted in DMSO and, where applicable, VPA (Sigma), were added at a final concentration of 1 μM and 2 mM, respectively. VPA was removed after 1 week, and compound was re-applied every other day with each media change. Plates were scored for GFP+colonies after 11 of compound treatment.
The inventors re-iterated their screen to find small molecules that could replace Oct4 (FIG. 27A). The inventors modified their approach slightly and screened in normal mES culture media containing a higher concentration of VPA (2 mM). After transducing 7500 MEFs with the four reprogramming transgenes and treating with VPA, the inventors observed only ˜125 GFP+ colonies (FIG. 27C). […] Therefore we opted to continue the screen under these conditions.
Following transduction with only Klf4, cMyc, and Sox2, 2000 MEFS were cultured for 25 days in the presence of VPA and each compound from the chemical library (FIG. 27A). […] Additionally, Ropivacaine, a compound that both antagonizes Na^+-channels and that also activates p38 mitogen-activated protein kinase (MAPK)(25)(FIG. 27B), induced more than 10 colonies that had mES-like morphologies, but were not GFP+(FIG. 27C).

Assay [4] relates to Oct4, Klf4, cMyc, and Sox2-infected MEFs. Put plainly: Reprogramming efficiency with all four factors. The assay is classed as cell-based, mouse. How it is done:
as §2
(§4) Retroviral infection and compound or antibody treatment was performed as in the original chemical screen. To quantify the numbers of GFP+colonies produced in
(§5) different conditions, the number of colonies in each well was counted and at least 2 different wells were counted and averaged. Concentrations of compounds and antibodies were the following: VPA (Sigma)-2 mM, RepSox (Calbiochem)-25 μM, E-616451 (Calbiochem)-3 μM, EI-275 (Biomol)-3 SB-431542 (Sigma)-25 μM, TgfβIIspecific antibody (R&D Systems, AB-12-NA)-10 μg/ml, pan-Tgβ antibody (R&D Systems, AB-100-NA)-10 μg/ml. Unless otherwise noted, all chemical treatments were continuous from initial administration at day 4-5 post-infection until GFP+colonies were scored. Fresh chemical was added at each media change.

Assay [5] has as its system Oct4, Klf4, and cMyc-infected Oct4::GFP MEFs. Kind of assay: Sox2 replacement: Oct4::GFP+ colony formation in Oct4, Klf4, cMyc-infected MEFs. The assay is classed as cell-based, mouse. On the procedure: MEFs were derived from E12.5 embryos hemizygous for the Oct4::GFP transgenic allele. Gonads and internal organs were removed before processing the embryos for MEF isolation. MEFs were grown in DMEM supplemented with 10% FBS and penicillin/streptomycin. Low passage (up to passage 3) MEFs were used for generation of iPS cells.
as §2, §3
Infections and VPA/compound addition was done as in the original chemical screen, and wells were scored for GFP+ colonies on day 25 after compound addition.
as §4, §5

The test system of assay [6] is Oct4, cMyc and Sox2-infected Oct4::GFP MEFs. Put plainly: Klf4 replacement: Oct4::GFP+ colonies in Oct4, cMyc, Sox2-infected MEFs. The format is cell-based, mouse. On the procedure: as §2
On day 4 post-infection, infected MEFs were trypsinized and re-seeded on irradiated feeders in 96-well plates at 2000 cells/well and cultured in mouse ES cell media (Knockout DMEM supplemented with 15% Hyclone FBS, L-glutamine, penicillin/streptomycin, nonessential amino acids, β-mercaptoethanol, and 1000 U/ml LIF). The next day, compound stock solutions diluted in DMSO and, where applicable, VPA (Sigma), were added at a final concentration of 1 μM and 2 mM, respectively. […] Plates were scored for GFP+colonies after 11 of compound treatment. […]

The next assay deals with Nanog. Put plainly: Nanog expression in partially reprogrammed intermediate cell lines. The format is cell-based, mouse. The note with it: lines OKM 10 and OKMS 7, 48 hours. On the procedure: Cells were grown to near confluence on an irradiated layer and RNA was isolated with Trizol (Invitrogen). RNA was amplified and labeled with biotin using the Illumina Total Prep RNA Amplification Kit from Ambion, hybridized to Illumina Whole-Genome Expression BeadChips (MouseRef-8), and analyzed by an Illumina Beadstation 500. All lines were analyzed in biological duplicate or triplicate. Data were processed using Resolver software.

For another assay, the system named is Tgf-β signaling. To be noted: reference 32; cited from earlier work.
Assay [7] has as its system MEFs transduced with Oct4, Klf4, and Sox2. Kind of assay: cMyc replacement: Oct4::GFP+ colonies in the absence of cMyc. The format is cell-based, mouse. How it is done:
as §2, §4
different conditions, the number of colonies in each well was counted and at least 2 different wells were counted and averaged. […] Unless otherwise noted, all chemical treatments were continuous from initial administration at day 4-5 post-infection until GFP+colonies were scored. […]

On to `Nc1ncn([C@@H]2O[C@H](CO)[C@@H](O)[C@H]2O)c(=O)n1` [AZA, 5-aza-cytidine], for which the “Oct4::GFP expression in RepSox-responsive OKMS lines” value in [1] (48 hours treatment and 12 subsequent days) was “none of the RepSox-responsive cell lines expressed Oct4::GFP”. For the same compound, the “lines reprogrammed out of 9 OKMS intermediate lines” value in [1] (48 hours treatment at passage 4) is listed as “one”. The “lines reprogrammed out of 10 OKM intermediate lines” value in assay [2] (48 hours treatment) is reported as “none”. Besides, in [2] (48 hours, then 14 days culture), the “Oct4::GFP+ colonies in line OKM 10” value is reported as “Neither chemical induced formation of Oct4::GFP+colonies”.

Regarding `CCCCN1CCCCC1C(=O)Nc1c(C)cccc1C` (stereo not drawn) [Bupivacaine], the “Oct4::GFP+ colonies in the absence of VPA” value in [3] (larger scale) is on record as “independently induced GFP+colonies”. Moreover, the “effect on reprogramming efficiency with all four iPS factors” value (shortened to “effect on reprogramming efficiency”) in assay [4] is reported as “not enhanced”; in assay [4] (listed as Bupivocaine), “do not increase the efficiency of reprogramming”.

In the case of `c1ccc(-c2n[nH]cc2-c2ccnc3ccccc23)nc1` [E-616451, [3-(Pyridin-2-yl)-4-(4-quinoyl)]-1H-pyrazole], the “rate of GFP+ colony formation with VPA” value in [5] (1500 MEFs, + VPA, E-616452 25 μM, E-616451 3 μM, EI-275 3 μM) is “comparable to normal retroviral transduction with Sox2”. For the same compound, in [5] (2000 cells per well, compound 1 μM, 2 mM VPA for first 7 days, scored after 16 days), the “GFP+ colonies with mES-like morphology in primary screen” value was “induced GFP+colonies”. Moreover, the “concentration at which found to be most potent in reprogramming” value in assay [5] (E-616451 and EI-275 +VPA) was 3 µM. The “optimal concentration for Oct4::GFP+ colony formation” value in [5] (compound titration, 2 mM of VPA in all wells (FIG. 7)) was “greater than 1 μM”. Further, the “GFP+ colonies in the absence of VPA” value in [5] (no VPA) was “could not induce the appearance of GFP+colonies”. Further, the “effect on reprogramming efficiency” value in [4] is “not enhanced; also recorded: do not increase the efficiency of reprogramming”.

With `O=C(O)c1cc(NCc2cc(O)ccc2O)ccc1O` [HDBA, Lavendustin C], the “GFP+ colonies with mES-like morphology in Klf4 replacement screen” value in assay [6] (2000 cells per well, 25 days, scored after 30 days) is reported as “hit compounds”. In addition, the “induction of GFP+ colonies and dependence on VPA” value in assay [6] (larger scale validation) is “both with and without VPA”. Besides, the “effect on reprogramming efficiency” value in assay [4] is “do not increase the efficiency of reprogramming”.

Consider `CCCN1CCCC[C@H]1C(=O)Nc1c(C)cccc1C` [Ropivacaine], for which the “colonies becoming Oct4::GFP+ after added 5-aza-cytidine” value in [3] (VPA, then 5-aza-cytidine for 48 hours) is “majority of these colonies became Oct4::GFP+”. The “formation of GFP+ colonies, dependence on VPA and 5-aza-cytidine” value in assay [3] (larger scale) is “only when used in conjunction with VPA and 5-aza-cytidine”. Besides, the “colonies with mES-like morphologies but not GFP+” value in assay [3] (screen with VPA) was “more than 10”. In addition, the “effect on reprogramming efficiency” value in [4] is listed as “do not increase the efficiency of reprogramming”.

`NC(=O)c1ccc(-c2nc(-c3ccc4c(c3)OCO4)c(-c3ccccn3)[nH]2)cc1` [SB431542, 4-(5-benzo[1,3]dioxol-5-yl-4-pyridin-2-yl-1H-imidazol-2-yl)-benzamide]: the “GFP+ colonies per 7500 cells plated” value in [5] (25 μM) is −10. Besides, the “Nanog expression versus untreated control” value in the assay with Nanog is recorded as “strongly increased”. In addition, the “effect on reprogramming efficiency” value in assay [4] is listed as “do not increase the efficiency of reprogramming”. Besides, in the assay with Tgf-β signaling, the “concentration required for complete Tgf-β inhibition” value is on record as “greater than 1 μM”. Besides, the “reprogramming efficiency in the absence of cMyc” value in [7] is “increased reprogramming efficiency”.

`COC1=C[C@@H]2[C@@H]3Cc4ccc(OC)c(O)c4C2(CCN3C)CC1=O` [Sinomenine]: the “GFP+ colonies in Oct4 replacement screen” value in assay [3] (2000 MEFs, 25 days, VPA 2 mM) is on record as “induced GFP+colonies”. The “Oct4::GFP+ colonies in the absence of VPA” value in assay [3] (larger scale) is listed as “failed to induce Oct4::GFP+colonies”. Also, the “Oct4::GFP+ colonies in the presence of VPA” value in assay [3] (larger scale) was “induced Oct4::GFP+colonies”. Also, the “effect on reprogramming efficiency” value in assay [4] (listed as Simomenine) is reported as “not enhanced”; in assay [4] (listed as Sinimonine), “do not increase the efficiency of reprogramming”.

With `CCCC(CCC)C(=O)O` [VPA, valproic acid], the “GFP+ colonies with VPA alone” value in assay [5] (1500 MEFs, VPA only, no Sox2) is given as “no GFP+colonies were observed”. Also, in [4], the “increase in the number of GFP+ colonies over the untreated control” value is “greater than 10 fold”. Also, the “GFP+ colonies per 7500 MEFs in medium with VPA” value in [4] (four transgenes + VPA) is 100-200 and ~125.
